Here are results for 23 compounds from patent US9783527B2, “Indazole ureas and method of use” (AbbVie Inc., priority 2014, dated 2017).

One assay addresses human Nav1.8 (Homo sapiens (Human), UniProt Q9Y5Y9). In words: FRET-based membrane potential assay, recombinant human sodium channel Nav1.8. The class given is cell-based. The following applies: HEK293 cells stably expressing recombinant human Nav1.8; depolarization with veratridine (EC80) + scorpion venom. An outline of the steps:
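HEK293 cells stably expressing Nav1.8 were loaded with CC2-DMPE/DiSBAC2(3) FRET voltage dyes. Compounds were added 3 min before depolarization with EC80 veratridine plus scorpion venom. The F440-480/F565-625 ratio was read on FLIPR; IC50 came from four-parameter Hill fits.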

For a further assay, the target named is human Nav1.7 (Homo sapiens (Human), UniProt Q15858). In words: FRET-based membrane potential assay, recombinant human sodium channel Nav1.7. The class given is cell-based. The following applies: HEK293 cells stably expressing recombinant human Nav1.7; depolarization with veratridine (EC80) + scorpion venom. An outline of the steps: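 IC50 derived by four-parameter Hill fit of percent inhibition of depolarization, measured as peak F440-480/F565-625 ratio over baseline. Stable human Nav1.7 HEK293 cells, dye-loaded with CC2-DMPE and DiSBAC2(3)/VABSC-1 at room temperature, received compound 3 min ahead of veratridine (EC80) plus scorpion venom.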

For assay [1], the system named is MIA-induced osteoarthritic pain in rats. Description: Osteoarthritic (OA) pain induced by sodium monoiodoacetate (MIA), hind limb grip force. The following applies: male Sprague Dawley rats, grip force 20 days after MIA injection. The class given is in vivo, rat. Here is the method:
Osteoarthritic (OA) Pain Induced by Sodium Monoiodoacetate (MIA)
Pain behavior was assessed by measurement of hind limb grip force (GF) in adult osteoarthritic rats. Male Sprague Dawley rats, obtained from Charles River Laboratories, (Wilmington, Mass.), weighing 150-175 g, were injected in the unilateral knee join with a single intra-articular injection of sodium monoiodoacetate (MIA, 3 mg/rat). All rats were tested at 20 days following MIA injection. A behavioral measure of activity-induced pain was carried out. Measurements of the peak hind limb grip force were conducted by recording the maximum compressive force (CFmax), in grams of force, exerted on a hind limb strain gauge setup, in a commercially available grip force measurement system (Columbus Instruments, Columbus, Ohio).
During testing, each rat was gently restrained by grasping it around its rib cage and then allowed to grasp the wire mesh frame attached to the strain gauge. The experimenter then moved the animal in a rostral-to-caudal direction until the grip was broken. Each rat was sequentially tested twice at an approximately 2-3 minute interval to obtain a raw mean grip force (CFmax). This raw mean grip force data was in turn converted to a maximum hindlimb cumulative compressive force (CFmax), as the grams of force/kg of body weight, for each animal.
For evaluating the compound effects, the hind limb grip force was conducted 20 days following the intra-articular injection of MIA. A group of age-matched nave (not injected with MIA) animals was added as a comparator to the drug-dosed groups. The vehicle control response for each group of MIA-treated animals was defined as the 0% response (0% effect), whereas the nave control group was defined as the normal response and as 100% effect. The % effect for each dose group was expressed as % return of response to normalcy, compared to the nave group. A percent maximal possible effect (% MPE) of testing compound was calculated according to the formula: (Treatment CFmax−Vehicle CFmax)/Vehicle CFmax]×100). Higher % effect numbers indicate increased relief from the pain in the model, with 100% indicating a return to the level of response seen in normal (non-osteoarthritic) animals. All experiments evaluating drug effects in this model were conducted in a randomized blinded fashion.
The animals were housed in Association for Assessment and Accreditation of Laboratory Animal Care (AAALAC) approved facilities at AbbVie Inc. in a temperature-regulated environment under a controlled 12-hour light-dark cycle, with lights on at 6:00 a.m. Food and water were available ad libitum at all times except during testing. All testing was done following procedures outlined in protocols approved by AbbVie Inc.'s Institutional Animal Care and Use Committee.

Each structure is given as a SMILES string.

Sequence of human Nav1.7 (Q15858 whole entry): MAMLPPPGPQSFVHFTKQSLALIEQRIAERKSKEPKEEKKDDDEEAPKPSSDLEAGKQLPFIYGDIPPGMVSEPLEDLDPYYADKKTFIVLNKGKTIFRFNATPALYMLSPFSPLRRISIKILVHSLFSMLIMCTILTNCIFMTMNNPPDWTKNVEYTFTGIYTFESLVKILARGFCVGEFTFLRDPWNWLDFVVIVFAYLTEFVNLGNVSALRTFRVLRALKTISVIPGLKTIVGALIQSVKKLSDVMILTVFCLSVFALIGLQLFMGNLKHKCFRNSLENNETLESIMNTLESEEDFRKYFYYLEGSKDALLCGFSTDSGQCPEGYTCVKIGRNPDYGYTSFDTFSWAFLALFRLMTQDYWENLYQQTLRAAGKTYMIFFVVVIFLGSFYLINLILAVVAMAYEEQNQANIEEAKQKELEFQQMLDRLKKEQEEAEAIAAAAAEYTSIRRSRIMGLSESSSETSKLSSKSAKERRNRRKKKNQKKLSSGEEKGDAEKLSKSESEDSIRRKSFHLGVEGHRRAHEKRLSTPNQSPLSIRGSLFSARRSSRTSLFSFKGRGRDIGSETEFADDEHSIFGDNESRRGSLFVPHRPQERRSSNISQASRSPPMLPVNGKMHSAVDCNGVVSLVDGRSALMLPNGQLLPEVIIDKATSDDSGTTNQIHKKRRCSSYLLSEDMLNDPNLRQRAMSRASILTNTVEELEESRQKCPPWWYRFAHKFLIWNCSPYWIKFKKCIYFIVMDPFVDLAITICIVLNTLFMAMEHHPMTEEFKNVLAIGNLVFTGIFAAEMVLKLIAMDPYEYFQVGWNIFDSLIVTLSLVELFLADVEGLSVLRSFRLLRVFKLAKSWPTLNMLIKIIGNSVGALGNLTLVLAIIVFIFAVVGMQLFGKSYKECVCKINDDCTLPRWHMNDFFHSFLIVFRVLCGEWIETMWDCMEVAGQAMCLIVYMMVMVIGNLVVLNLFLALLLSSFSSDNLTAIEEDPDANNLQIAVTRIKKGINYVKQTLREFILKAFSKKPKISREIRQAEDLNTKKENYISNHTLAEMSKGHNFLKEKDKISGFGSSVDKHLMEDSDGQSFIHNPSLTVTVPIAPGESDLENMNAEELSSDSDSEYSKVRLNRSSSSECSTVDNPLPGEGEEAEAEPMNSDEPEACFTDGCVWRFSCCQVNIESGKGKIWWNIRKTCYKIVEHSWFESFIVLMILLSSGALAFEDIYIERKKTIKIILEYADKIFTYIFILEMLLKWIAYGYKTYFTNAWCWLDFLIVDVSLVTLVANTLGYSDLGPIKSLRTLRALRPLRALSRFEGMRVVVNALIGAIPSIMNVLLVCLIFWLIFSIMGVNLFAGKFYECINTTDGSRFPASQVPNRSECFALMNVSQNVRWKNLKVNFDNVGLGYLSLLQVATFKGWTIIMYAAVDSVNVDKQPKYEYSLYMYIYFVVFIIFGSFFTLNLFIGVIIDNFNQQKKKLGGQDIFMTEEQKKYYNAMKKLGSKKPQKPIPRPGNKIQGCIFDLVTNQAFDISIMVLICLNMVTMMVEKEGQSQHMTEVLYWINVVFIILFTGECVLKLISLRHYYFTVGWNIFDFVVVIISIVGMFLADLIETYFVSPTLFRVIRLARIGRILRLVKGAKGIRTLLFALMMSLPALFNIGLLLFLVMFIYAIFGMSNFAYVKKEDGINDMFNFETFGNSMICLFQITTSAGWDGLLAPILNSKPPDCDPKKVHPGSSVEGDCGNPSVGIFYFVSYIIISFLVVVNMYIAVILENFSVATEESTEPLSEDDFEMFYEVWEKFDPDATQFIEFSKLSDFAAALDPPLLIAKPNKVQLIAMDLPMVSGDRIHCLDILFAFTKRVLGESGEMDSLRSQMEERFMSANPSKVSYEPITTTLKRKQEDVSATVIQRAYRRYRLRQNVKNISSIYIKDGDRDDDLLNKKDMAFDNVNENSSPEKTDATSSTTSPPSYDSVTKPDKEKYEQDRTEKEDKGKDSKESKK
Sequence of human Nav1.8 (Q9Y5Y9 whole entry): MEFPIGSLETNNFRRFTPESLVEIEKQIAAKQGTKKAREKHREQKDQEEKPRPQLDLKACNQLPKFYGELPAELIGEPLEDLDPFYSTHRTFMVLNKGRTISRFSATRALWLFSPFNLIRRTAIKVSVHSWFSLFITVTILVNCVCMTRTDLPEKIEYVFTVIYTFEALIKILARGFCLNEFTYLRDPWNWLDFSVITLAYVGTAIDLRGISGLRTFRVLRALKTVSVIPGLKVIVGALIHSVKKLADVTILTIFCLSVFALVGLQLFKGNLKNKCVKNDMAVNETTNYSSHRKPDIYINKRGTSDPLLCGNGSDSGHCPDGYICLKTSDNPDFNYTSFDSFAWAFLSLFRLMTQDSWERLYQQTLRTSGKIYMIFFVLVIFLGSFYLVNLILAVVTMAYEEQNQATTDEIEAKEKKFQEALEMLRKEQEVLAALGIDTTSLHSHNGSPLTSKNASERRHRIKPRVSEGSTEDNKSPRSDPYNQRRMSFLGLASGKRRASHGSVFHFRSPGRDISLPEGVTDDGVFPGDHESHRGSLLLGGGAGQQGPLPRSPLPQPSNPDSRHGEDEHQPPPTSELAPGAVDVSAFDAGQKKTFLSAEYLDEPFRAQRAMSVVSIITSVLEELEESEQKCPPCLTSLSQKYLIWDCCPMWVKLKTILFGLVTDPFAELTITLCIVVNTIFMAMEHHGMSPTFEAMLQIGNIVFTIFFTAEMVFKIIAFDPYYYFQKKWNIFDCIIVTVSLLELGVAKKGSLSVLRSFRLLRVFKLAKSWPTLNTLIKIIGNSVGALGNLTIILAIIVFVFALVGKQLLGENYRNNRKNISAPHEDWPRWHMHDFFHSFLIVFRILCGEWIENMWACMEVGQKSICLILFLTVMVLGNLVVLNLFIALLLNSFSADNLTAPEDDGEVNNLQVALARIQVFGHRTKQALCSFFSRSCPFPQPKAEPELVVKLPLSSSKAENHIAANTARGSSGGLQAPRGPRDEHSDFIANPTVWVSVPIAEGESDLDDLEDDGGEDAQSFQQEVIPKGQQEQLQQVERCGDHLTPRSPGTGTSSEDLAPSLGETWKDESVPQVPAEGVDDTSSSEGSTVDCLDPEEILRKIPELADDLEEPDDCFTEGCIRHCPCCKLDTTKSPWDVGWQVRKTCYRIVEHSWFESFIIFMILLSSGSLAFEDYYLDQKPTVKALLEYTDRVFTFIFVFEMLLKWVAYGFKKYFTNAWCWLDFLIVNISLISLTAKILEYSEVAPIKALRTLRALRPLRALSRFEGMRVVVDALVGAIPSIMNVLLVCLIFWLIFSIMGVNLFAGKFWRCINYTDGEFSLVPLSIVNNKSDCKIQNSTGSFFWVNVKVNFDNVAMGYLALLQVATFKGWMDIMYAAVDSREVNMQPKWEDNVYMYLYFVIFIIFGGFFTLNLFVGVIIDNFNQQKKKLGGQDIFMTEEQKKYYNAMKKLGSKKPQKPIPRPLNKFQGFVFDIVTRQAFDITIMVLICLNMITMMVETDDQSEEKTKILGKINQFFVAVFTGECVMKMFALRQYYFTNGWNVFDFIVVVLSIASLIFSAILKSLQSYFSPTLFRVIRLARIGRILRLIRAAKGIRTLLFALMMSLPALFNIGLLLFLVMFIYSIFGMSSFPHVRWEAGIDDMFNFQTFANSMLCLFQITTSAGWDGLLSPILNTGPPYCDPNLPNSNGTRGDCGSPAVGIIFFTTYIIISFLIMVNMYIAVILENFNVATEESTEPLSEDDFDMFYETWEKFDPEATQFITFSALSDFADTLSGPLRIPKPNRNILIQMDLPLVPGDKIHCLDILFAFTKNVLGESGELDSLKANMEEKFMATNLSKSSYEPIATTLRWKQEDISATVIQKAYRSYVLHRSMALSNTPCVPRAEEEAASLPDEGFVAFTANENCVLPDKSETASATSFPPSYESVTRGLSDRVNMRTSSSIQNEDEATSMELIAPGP

Consider `O=C1N(CC(=O)N2C[C@H]3C[C@@H]2CO3)CCN1c1cccc2c1cnn2-c1ccccc1F` [Example 25, 1-[1-(2-fluorophenyl)-1H-indazol-4-yl]-3-{2-[(1R,4R)-2-oxa-5-azabicyclo[2.2.1]hept-5-yl]-2-oxoethyl}imidazolidin-2-one], for which the IC50 (in general, the concentration needed to halve the response being measured) at human Nav1.8 was found to be 8510 nM; on human Nav1.7, 499 nM. For the same compound, the “OA MPE (%)” value in assay [1] (OA dose 10 mg/kg) is 24%.
With `O=C1N(Cc2nnc(C3CC3)s2)CCN1c1cccc2c1cnn2-c1ccccc1F` [Example 30, 1-[(5-cyclopropyl-1,3,4-thiadiazol-2-yl)methyl]-3-[1-(2-fluorophenyl)-1H-indazol-4-yl]imidazolidin-2-one], on human Nav1.7, the IC50 was 1300 nM. Also, the “OA MPE (%)” value in assay [1] (OA dose 10 mg/kg) was found to be 80%.
As for `O=C1N(c2cccc3c2cnn3-c2ccccc2F)CCN1[C@@H]1CCOC1` [Example 32, 1-[1-(2-fluorophenyl)-1H-indazol-4-yl]-3-[(3R)-tetrahydrofuran-3-yl]imidazolidin-2-one], the IC50 at human Nav1.8 turned out to be 2540 nM; at human Nav1.7, 4230 nM. For the same compound, in assay [1] (OA dose 30 mg/kg), the “OA MPE (%)” value is given as 65%.
Turning to `Cc1cnc(N2CCN(c3cccc4c3cnn4-c3ccccc3F)C2=O)nc1` [Example 33, 1-[1-(2-fluorophenyl)-1H-indazol-4-yl]-3-(5-methylpyrimidin-2-yl)imidazolidin-2-one], the IC50 on human Nav1.7 is 624 nM. The “OA MPE (%)” value in assay [1] (OA dose 10 mg/kg) is 17%.
As for `O=C1N(Cc2nccs2)CCN1c1cccc2c1cnn2-c1ccccc1F` [Example 34, 1-[1-(2-fluorophenyl)-1H-indazol-4-yl]-3-(1,3-thiazol-2-ylmethyl)imidazolidin-2-one], the IC50 at human Nav1.7 was 420 nM. For the same compound, in assay [1] (OA dose 10 mg/kg), the “OA MPE (%)” value came out at 43%.
For `O=C1N(Cc2cnccn2)CCN1c1cccc2c1cnn2-c1ccccc1F` [Example 35, 1-[1-(2-fluorophenyl)-1H-indazol-4-yl]-3-(pyrazin-2-ylmethyl)imidazolidin-2-one] the same measures were 747 nM and 19%.
For `O=C1N(Cc2ncco2)CCN1c1cccc2c1cnn2-c1ccc(F)cc1F` [Example 36, 1-[1-(2,4-difluorophenyl)-1H-indazol-4-yl]-3-(1,3-oxazol-2-ylmethyl)imidazolidin-2-one] the same measures were 643 nM and 27%.
On to `O=C1N(Cc2cocn2)CCN1c1cccc2c1cnn2-c1ccc(F)cc1F` [Example 37, 1-[1-(2,4-difluorophenyl)-1H-indazol-4-yl]-3-(1,3-oxazol-4-ylmethyl)imidazolidin-2-one], for which the IC50 on human Nav1.7 stood at 392 nM. For the same compound, the “OA MPE (%)” value in assay [1] (OA dose 10 mg/kg) stood at 35%.
With `C[C@H]1CN(c2cccc3c2cnn3-c2ccccc2F)C(=O)N1Cc1ncco1` [Example 38, (4S)-1-[1-(2-fluorophenyl)-1H-indazol-4-yl]-4-methyl-3-(1,3-oxazol-2-ylmethyl)imidazolidin-2-one], the IC50 at human Nav1.7 came to 1390 nM. Besides, the “OA MPE (%)” value in assay [1] (OA dose 10 mg/kg) is reported as 33%.
Regarding `O=C1N(Cc2cscn2)CCN1c1cccc2c1cnn2-c1ccccc1F` [Example 39, 1-[1-(2-fluorophenyl)-1H-indazol-4-yl]-3-(1,3-thiazol-4-ylmethyl)imidazolidin-2-one], at human Nav1.7, the IC50 came to 301 nM. Besides, the “OA MPE (%)” value in assay [1] (OA dose 10 mg/kg) is listed as 38%.
For `Cc1nnc(CN2CCN(c3cccc4c3cnn4-c3ccccc3F)C2=O)s1` [Example 40, 1-[1-(2-fluorophenyl)-1H-indazol-4-yl]-3-[(5-methyl-1,3,4-thiadiazol-2-yl)methyl]imidazolidin-2-one], the IC50 on human Nav1.7 was 3150 nM. Further, in assay [1] (OA dose 10 mg/kg), the “OA MPE (%)” value is 41%.
`Cc1cnc(CN2CCN(c3cccc4c3cnn4-c3ccccc3F)C2=O)o1` [Example 41, 1-[1-(2-fluorophenyl)-1H-indazol-4-yl]-3-[(5-methyl-1,3-oxazol-2-yl)methyl]imidazolidin-2-one]: the IC50 on human Nav1.7 amounted to 1570 nM. Further, the “OA MPE (%)” value in assay [1] (OA dose 10 mg/kg) is reported as 47%.
For `Cc1nccnc1CN1CCN(c2cccc3c2cnn3-c2ccccc2F)C1=O` [Example 43, 1-[1-(2-fluorophenyl)-1H-indazol-4-yl]-3-[(3-methylpyrazin-2-yl)methyl]imidazolidin-2-one], the IC50 on human Nav1.7 amounted to 915 nM. In assay [1] (OA dose 30 mg/kg), the “OA MPE (%)” value was 71%.
In the case of `Cc1nnc(CN2CCN(c3cccc4c3cnn4-c3ccccc3F)C2=O)o1` [Example 44, 1-[1-(2-fluorophenyl)-1H-indazol-4-yl]-3-[(5-methyl-1,3,4-oxadiazol-2-yl)methyl]imidazolidin-2-one], the IC50 at human Nav1.7 came out at 2940 nM. In addition, the “OA MPE (%)” value in assay [1] (OA dose 30 mg/kg) is on record as 71%.
For the compound `CCc1cc(CN2CCN(c3cccc4c3cnn4-c3ccccc3F)C2=O)on1` [Example 45, 1-[(3-ethyl-1,2-oxazol-5-yl)methyl]-3-[1-(2-fluorophenyl)-1H-indazol-4-yl]imidazolidin-2-one], at human Nav1.7, the IC50 worked out at 1120 nM. Besides, the “OA MPE (%)” value in assay [1] (OA dose 10 mg/kg) turned out to be 43%.
Take `CCOc1nnc(CN2CCN(c3cccc4c3cnn4-c3ccccc3F)C2=O)s1` [Example 47, 1-[(5-ethoxy-1,3,4-thiadiazol-2-yl)methyl]-3-[1-(2-fluorophenyl)-1H-indazol-4-yl]imidazolidin-2-one]: the IC50 at human Nav1.8 amounted to 3980 nM; on human Nav1.7 it was 1490 nM. Besides, in assay [1] (OA dose 10 mg/kg), the “OA MPE (%)” value is reported as 19%.
Consider `Cc1nc(CN2CCCN(c3cccc4c3cnn4-c3ccccc3F)C2=O)oc1C` [Example 48, 1-[(4,5-dimethyl-1,3-oxazol-2-yl)methyl]-3-[1-(2-fluorophenyl)-1H-indazol-4-yl]tetrahydropyrimidin-2(1H)-one], for which the IC50 at human Nav1.8 amounted to 1140 nM; on human Nav1.7 it was 2010 nM. In addition, in assay [1] (OA dose 10 mg/kg), the “OA MPE (%)” value is 20%.
In the same order, the values of `O=C1N(Cc2nnc(C3CC3)o2)CCN1c1cccc2c1cnn2-c1ccccc1F` [Example 49, 1-[(5-cyclopropyl-1,3,4-oxadiazol-2-yl)methyl]-3-[1-(2-fluorophenyl)-1H-indazol-4-yl]imidazolidin-2-one] are 538 nM, 2320 nM and 66%.
Regarding `O=C1N(Cc2nnc(C3CCC3)o2)CCN1c1cccc2c1cnn2-c1ccccc1F` [Example 50, 1-[(5-cyclobutyl-1,3,4-oxadiazol-2-yl)methyl]-3-[1-(2-fluorophenyl)-1H-indazol-4-yl]imidazolidin-2-one], the IC50 is 3080 nM on human Nav1.8 and 1530 nM at human Nav1.7. The “OA MPE (%)” value in assay [1] (OA dose 10 mg/kg) was 7%.
As for `CCS(=O)(=O)N1CC(N2CCN(c3cccc4c3cnn4-c3ccccc3F)C2=O)C1` [Example 51, 1-[1-(ethylsulfonyl)azetidin-3-yl]-3-[1-(2-fluorophenyl)-1H-indazol-4-yl]imidazolidin-2-one], the IC50 at human Nav1.8 was 1140 nM; at human Nav1.7, 3100 nM. Also, the “OA MPE (%)” value in assay [1] (OA dose 30 mg/kg) came out at 16%.
For `O=C(CN1CCN(c2cccc3c2cnn3-c2ccccc2F)C1=O)N1CCC[C@@H](O)C1` [Example 52, 1-[1-(2-fluorophenyl)-1H-indazol-4-yl]-3-{2-[(3R)-3-hydroxypiperidin-1-yl]-2-oxoethyl}imidazolidin-2-one] the same measures were 10100 nM, 2490 nM and 27%.
In the same order, the values of `Cc1cccc(-n2ncc3c(N4CCN(CC(=O)N5CC[C@H](F)C5)C4=O)cccc32)c1` [Example 56, 1-{2-[(3S)-3-fluoropyrrolidin-1-yl]-2-oxoethyl}-3-[1-(3-methylphenyl)-1H-indazol-4-yl]imidazolidin-2-one] are 4630 nM, 1830 nM and 70%.
In the same order, the values of `CCC1(O)CN(C(=O)CN2CCN(c3cccc4c3cnn4-c3ccccc3F)C2=O)C1` [Example 205, 1-[2-(3-ethyl-3-hydroxyazetidin-1-yl)-2-oxoethyl]-3-[1-(2-fluorophenyl)-1H-indazol-4-yl]imidazolidin-2-one] are 1500 nM, 778 nM and 46%.
